Results from US20040044067A1, “Toralactone and its derivation and the use of decreasing blood-fat and losing weight” (priority 2000, published 2004).

System: hyperlipemia guinea pigs
Assay: Effect on serum cholesterol and triglyceride in hyperlipemia guinea pigs (high-cholesterol feed, 30 days)
Format: in vivo, guinea pig
Settings: for Serum TC (total cholesterol) / Serum TG (triglyceride): guinea pigs on high-cholesterol feed (basic feed+0.5% cholesterol) plus 10 mg/(kg·d) compound for 30 days, serum taken 24 h after last feeding, n=10
Description: The test was performed as described in Fuhua, Wang, Chinese Journal of Surgery, 1991; 8 (1): 17. 60 healthy guinea pigs of 200-500 g were randomly divided into 6 groups based on body weight and sex. Each group contained 10 animals, including both male and female. The guinea pigs of Group 1 were fed with high-cholesterol feed (basic feed+0.5% cholesterol) at an amount of 20 g per 100 g body weight per day. Groups 2, 3, 4, 5 were test groups, the guinea pigs of which were fed with high-cholesterol feed plus 10 mg/(kg·d) of Compound (1), (2), (3) or (4) for 30 days. The guinea pigs of Group 6 were fed with basic feed only. The feeding for each group continued for 30 days, and 24 hours after the last feeding, the guinea pigs were anaesthetized i.p. with 1 g/kg Urethane. Blood was taken from heart, and serum was separated. The level of serum total cholesterol (TC) and triglyceride (TG) were determined.
In the above procedure, cholesterol was determinated by enzymatic analysis, using enzymatic agent assay kit from BGH Company (Taiwan). All the operations were carried out according to the manufacturer's instruction, and the determination was accomplished in ENCOREII automatic biochemistry analyser.

With “neotoralactone-8-O-β-D-glucoside [Compound (3)]” the “Serum TC (total cholesterol)” value was 3.81 ± 0.9 mmol/L and the “Serum TG (triglyceride)” value was 1.18 ± 0.2 mmol/L.

In the case of “neotoralactone-6-O-β-D-galactoside [Compound (4)]”, the “Serum TC (total cholesterol)” value is reported as 3.71 ± 1.1 mmol/L and the “Serum TG (triglyceride)” value is reported as 1.22 ± 0.2 mmol/L.

With “neotoralactone-6-O-β-D-glucoside [Compound (2)]” the “Effect on the level of serum TC and TG (in words)” value (10 mg/(kg·d)×30d, hyperlipemia guinea pigs) was “most prominent”.

In the case of neotoralactone [Compound (1)], the “Serum TC (total cholesterol)” value is reported as 4.21 ± 1.9 mmol/L and the “Serum TG (triglyceride)” value is reported as 1.21 ± 0.3 mmol/L.
